Experimental data reported in ChEMBL document CHEMBL1681722, “5-oxo-15-HETE: total synthesis and bioactivity” (Bioorg Med Chem Lett, 2011).
Activity calls are given as the source filed them. The calls are words filed in the database; no cut-off is given here.

Columns and labels:
[1] = biological target: T1, Oxoeicosanoid receptor 1 (Homo sapiens, UniProt Q8TDS5); assay: Agonist activity at 5-oxo-ETE receptor in human neutrophils assessed as stimulation of ca2+ mobilization; assay type: functional
[2] = biological target: T1, Oxoeicosanoid receptor 1; assay: Agonist activity at 5-oxo-ETE receptor in human neutrophils assessed as stimulation of ca2+ mobilization at 100 nM in presence of 5-oxo-ETE; assay type: functional
[3] = Stability of the compound at -80 degC after 3 years by reversed-phase HPLC; assay type: physicochemical; details: 26298 h

T1 sequence (Q8TDS5 whole entry): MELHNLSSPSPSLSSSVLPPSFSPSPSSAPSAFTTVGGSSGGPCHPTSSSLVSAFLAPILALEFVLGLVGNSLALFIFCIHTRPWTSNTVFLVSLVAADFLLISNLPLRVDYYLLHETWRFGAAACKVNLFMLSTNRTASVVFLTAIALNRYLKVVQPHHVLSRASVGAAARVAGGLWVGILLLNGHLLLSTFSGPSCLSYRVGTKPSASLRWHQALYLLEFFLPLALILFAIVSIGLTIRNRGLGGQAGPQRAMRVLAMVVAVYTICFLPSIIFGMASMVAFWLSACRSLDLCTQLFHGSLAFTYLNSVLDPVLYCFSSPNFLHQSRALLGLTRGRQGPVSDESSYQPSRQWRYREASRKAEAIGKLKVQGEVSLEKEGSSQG

Row | EC50 [1] | Activity [2] | Stability [3] | SMILES
1 | 7 nM |  |  | CCCCC/C=C\C/C=C\C/C=C\C=C\C(=O)CCCC(=O)O [5-OXO-ETE]
2 | 56 nM | inactive | Stable | CCCCC[C@H](O)/C=C/C=C\C/C=C\C=C\C(=O)CCCC(=O)O
